One assay relates to mouse monocyte line J774. The assay can be described thus: Secretion of oxygen free radicals (oxidative burst) from mouse monocyte line. It counts as cell-based. The note with it: J774, FIG. 5.
For a further assay, the system named is J774 cells. As to conditions: 48 hours. As to the method: Nitric oxide is a proinflammatory mediator produced by macrophages. The classic stimulus for nitric oxide production is lipopolysaccharide (LPS). Other molecules derived from pathogens such as hsp60 also induce macrophages to produce nitric oxide. Nitric oxide is usually produced by cells in conjunction with TNFα, IL-1 and IL-6.
The effect of p277(Val^6-Val^11) was tested on the production of nitric oxide from a macrophage cell line both the direct effect and the effect of p277(Val^6-Val^11) on the nitric oxide produced in response to hsp60.
The assay method is described in full in WO 01/43691. Briefly, J774 cells (2×10^5 cells/assay) were incubated for 48 hours with LPS, hsp60 or p277(Val^6-Val^11) or in inhibition assay, the cells were incubated with hsp60 at various concentrations in the presence or absence of 20 μg/ml p277(Val^6-Val^11). After 48 hours the supernatant was collected and tested for nitric oxide. The test for nitric oxide is performed by mixing an equal volume of the cell supernatant with Griess reagent and measuring the resultant color at 550 nm.

The test system of assay [1] is peripheral blood monocytes. Briefly: Peripheral blood monocytes: IP-10 after direct stimulation or preincubation then LPS. It counts as cell-based, human. As to the method: Peripheral blood mononuclear cells were prepared from leucocytes of blood lots obtained from the blood bank. The cells were plated at a concentration of 4×10^6 cell/ml/well in 24 well tissue culture dishes in medium containing 10% fetal calf serum. The cells were allowed to adhere for 2 hours at 37° C. After this time, non-adherent cells were washed away and the adherent cells incubated in fresh medium containing 10% human AB serum for 6-8 days, changing the medium after 4 days. These culture conditions were reported to give rise to monocytes.
For stimulation the medium was replaced with medium without serum. For preincubation, the cells were exposed overnight to the tested compounds at various concentrations and then LPS was added. The supernatant was collected after a further overnight incubation and tested for various cytokines by ELISA assays.

Assay [2] has as its system BALB/c DO.11.10 bone marrow cells cultured for dendritic cells, cocultured with DO.11.10 T cells. The assay can be described thus: Education of mouse dendritic cells and stimulation of T-cells, cytokine content of supernatant. It counts as cell-based. The note with it: for IFN secretion of T cells / IL-4 secretion of T cells / IL-10 secretion of T cells / IL-12 secretion of T cells: 0.3 nM Ova peptide. As to the method:
Whelan et al. (J. Immunol 164, 6453-6460, 2000) addressed the problem in mice by an experiment in which mouse bone marrow cells were grown for 6 days in culture with GM-CSF to give immature dendritic cells. These dendritic cells were then incubated overnight with LPS (known to drive cells to DC1) or with a nematode antigen. The reason for the choice of nematode antigen was that injection of this antigen in vivo gives rise to a Th2 response in animals. After this so-called “education” of the dendritic cells, they were washed and subsequently incubated with naive T cells in the presence of antigenic stimulus. The experiment was possible because of the use of transgenic mice in which all the T cells respond to the same peptide (OVA323-339) which absolves the system from any question of bias of the T cell response at the level of the T cells. Any bias should be a consequence of the “education” of the dendritic cells. After three days of incubation the cytokine responses produced by the T cells, were measured by ELISA. […] In contrast, nematode antigen incubation gave rise to more IL-4 (Th2) than did controls while the LPS incubation inhibited the IL4 response. Therefore, the nematode antigen was said to drive cells to DC2. A similar method was used for testing the compounds of the present invention: • 1. Bone marrow cells were extracted from the leg bones of DO.11.10 mice transgenic for the TcR. All cells from these mice respond to the OVA peptide ([…]). • 2. Bone marrow cells were plated at 10^6 cells/ml in 100 mm diameter tissue culture petri dishes in Iscove's medium supplemented with 10% FCS, […], 1 mM sodium pyruvate, penicillin/streptomycin (according to manufacturer's recommendations), non-essential amino acids, 50 μM β-mercaptoethanol and 10 ng/ml mGM-CSF. • 3. After 4 days, the medium was carefully removed and replaced with fresh medium • 4. After 6 days, the non-adherent cells were harvested and used as immature dendritic cells • 5. The immature dendritic cells are plated at 1×10^6 cells/ml, 1 ml/well in 24 well plates in the above medium with various reagents added at various concentrations and incubated overnight. This is the stage in which the dendritic cells are “educated” • 6. The next day the cells were harvested and washed 3 times then resuspended at 5×10^4 cells/ml in 1 ml of the above medium but without the addition of GM-CSF to be cocultured with T cells • 7. […] 5×10^5 T cells were cultured with the dendritic cells from step 6 in the presence of various concentrations of the OVA peptide (0, 0.3 nM, 3 nM and 30 nM). • 9. After 3 days PMA (50 ng/ml) and ionomycin (500 ng/ml) were added to further stimulate the cells. • 10. The next day the cell supernatants were collected and assayed for cytokine content (Interferon γ, IL4, IL-10 and IL-12).
The compound was tested for stimulation of DO.11.10 bone marrow cells according to the assay described above (Production and education of mouse dendritic cells and stimulation of T-cells).
BALB/c DO.11.10 bone marrow cells were cultured for dendritic cells and then stimulated with LPS 1 μg/ml, LPS 10 μg/ml, hsp60 3 μg/ml, hsp60 10 μg/ml, p277 5 μg/ml and p277 50 μg/ml. The cells were then transferred to wells with T cells from fresh BALB/c DO.11.10 mice and stimulated with OVA peptide at different concentrations (0, 0.3 nM, 3 nM, 30 nM). Supernatant was collected after 48 hours for assay. 30 μl was taken for IFN, 40 μl for IL4 and IL-10 and 50 μl for IL-12 assays. The results are presented in the following tables, as amount of cytokine (pg/ml), and in FIG. 1.

[3] abbreviates: dendritic cells educated with 5 μg/ml.
The mark [4] stands for this setting: dendritic cells educated with 50 μg/ml.

The text below walks through data of patent US7576177B2, “Hsp peptides and analogs for modulation of immune responses via antigen presenting cells” (Andromeda Biotech Ltd., priority 2002, dated 2009).

On to “VLGGGVALLRVIPALDSLTPANED [p277(Val^6-Val^11)]”, for which the “inhibition of the oxidative burst (secretion of oxygen free radicals)” value in the assay with mouse monocyte line J774 is listed as “effective”. In addition, in the assay on cell lines, the “direct stimulation of TNFα” value was “ineffective” and the “inhibition of TNFα secreted as a result of stimulation by LPS or hsp60” value is “ineffective”. Also, in the assay with J774 cells, the “direct stimulation of nitric oxide production” value is recorded as “Under no conditions did the peptide stimulate nitric oxide production”. The “inhibition of hsp60 induced nitric oxide” value in the assay on J774 cells (hsp60 at various concentrations with 20 μg/ml peptide) is listed as “Neither did it inhibit the hsp60 induced nitric oxide produced”. The “amount of IP-10 produced in response to stimulus with LPS after preincubation” value in assay [1] (overnight preincubation, then LPS, FIG. 4) is on record as “did increase the amount of IP-10”. Also, the “IP-10 after direct stimulation” value in assay [1] (peripheral blood monocytes, no preincubation, FIG. 4) is reported as “did not give rise directly to II-10”. For the same sequence, the “IP-10 in response to hsp60 after preincubation” value in assay [1] (preincubation with p277(Val^6-Val^11), then hsp60) is on record as “did not give rise to IP-10”. Further, the “IL-4 produced by T cells after exposure of dendritic cells (in words)” value in assay [2] (compared with non-exposed dendritic cells) is on record as “more IL-4 than non-exposed dendritic cells”. In addition, in assay [2] (setting [3]), the “IFN secretion of T cells” value was 722.22 pg/mL, the “IL-4 secretion of T cells” value is 36.96 pg/mL, the “IL-10 secretion of T cells” value was 32.53 pg/mL and the “IL-12 secretion of T cells” value came to 177.50 pg/mL. Besides, in assay [2] (setting [4]), the “IFN secretion of T cells” value stood at 373.89 pg/mL, the “IL-4 secretion of T cells” value turned out to be 82.29 pg/mL, the “IL-10 secretion of T cells” value worked out at 27.15 pg/mL and the “IL-12 secretion of T cells” value is 82.50 pg/mL.
